{"source": "paper PMC7576608", "about": "“Mechanisms of telomerase inhibition by oxidized and therapeutic dNTPs” (Nature Communications, 2020)", "key": {"telomerase [1]": {"target": "T1, telomerase (Homo sapiens, UniProt O14746)", "T1 sequence (O14746 whole entry)": "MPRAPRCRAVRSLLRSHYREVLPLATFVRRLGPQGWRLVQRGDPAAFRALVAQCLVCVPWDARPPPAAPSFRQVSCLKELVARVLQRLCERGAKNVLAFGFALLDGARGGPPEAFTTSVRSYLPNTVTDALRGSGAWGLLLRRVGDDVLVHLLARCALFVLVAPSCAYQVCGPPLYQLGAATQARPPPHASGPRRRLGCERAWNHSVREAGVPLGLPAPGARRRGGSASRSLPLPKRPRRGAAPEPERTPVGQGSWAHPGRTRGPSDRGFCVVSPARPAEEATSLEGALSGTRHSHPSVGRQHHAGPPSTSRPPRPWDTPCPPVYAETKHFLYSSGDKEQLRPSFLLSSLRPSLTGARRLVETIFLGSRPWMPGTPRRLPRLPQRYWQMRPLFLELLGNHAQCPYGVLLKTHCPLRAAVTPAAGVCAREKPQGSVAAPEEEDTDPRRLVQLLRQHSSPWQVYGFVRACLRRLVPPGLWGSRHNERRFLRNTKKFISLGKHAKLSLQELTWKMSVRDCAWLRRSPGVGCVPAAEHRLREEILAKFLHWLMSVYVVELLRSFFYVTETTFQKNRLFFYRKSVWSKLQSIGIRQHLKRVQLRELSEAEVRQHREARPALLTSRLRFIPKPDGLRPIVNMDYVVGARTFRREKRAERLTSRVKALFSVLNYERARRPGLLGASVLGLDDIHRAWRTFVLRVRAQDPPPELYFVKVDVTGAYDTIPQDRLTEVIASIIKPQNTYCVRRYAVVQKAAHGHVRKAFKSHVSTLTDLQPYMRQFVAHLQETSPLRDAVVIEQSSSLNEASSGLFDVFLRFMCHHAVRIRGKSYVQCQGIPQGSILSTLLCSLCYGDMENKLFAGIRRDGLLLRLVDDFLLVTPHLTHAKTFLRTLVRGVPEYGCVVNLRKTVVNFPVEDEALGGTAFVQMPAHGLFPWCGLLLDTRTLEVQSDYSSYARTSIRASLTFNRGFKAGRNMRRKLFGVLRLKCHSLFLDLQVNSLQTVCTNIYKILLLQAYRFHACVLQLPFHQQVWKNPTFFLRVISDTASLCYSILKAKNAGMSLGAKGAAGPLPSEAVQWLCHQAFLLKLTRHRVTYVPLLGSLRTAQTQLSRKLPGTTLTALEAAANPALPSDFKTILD", "test": "Telomerase extension of 32P-end labeled primers with a single dNTP (percent primer extension)", "assay_type": "biochemical", "parameters": "made in house; anti-FLAG immunopurification, eluted with 3xFLAG peptide", "details": "for Percent Primer Extension: 50 μM single dNTP", "protocol": "A chain terminating mechanism of inhibition requires that the enzyme adds the modified dNTP to a growing chain, which then blocks further synthesis. […] To test whether telomerase can incorporate other modified dNTPs, and whether the incorporation is chain terminating and/or mutagenic, we conducted direct extension assays in which we radiolabeled the primer and added increasing concentrations (5, 50, and 500 μM) of a single dNTP (Supplementary Figs. 3, 5, 6, and 7). Since modified dNTPs may prefer mispairing, we tested various primers in which the first template base was either rA3, rC1, or rU5 (primer 1, primer 2, and primer 3, respectively), and compared the percent primer extension for each dNTP at the middle 50 μM concentration (Fig. 3). Primers 1 and 2 initiate synthesis at consecutive rA3rA4 or rC1rC2 template bases, respectively, so we could examine both incorporation and extension to the next base. However, the telomerase template lacks tandem rU residues.\nFig. 3 Telomerase insertion of modified dNTPs. Telomerase reactions were conducted with 5 nM ^32P-end labeled primer a Primer 1 (TTAGGG)3, b Primer 2 (GGTTAG)3, or c Primer 3 (AGGGTT)3. Reactions contained cellular-concentration dNTPs (lane 1) or 50 μM of indicated natural dNTP (blue, lanes 2–5), oxidized dNTP (red, lanes 6–8), or therapeutic dNTP (green, lanes 9–11). Products were separated on denaturing gels. […] Letters on the right indicate the template base; P indicates unextended 18-mer primer. Graphs represent the percent of total primers extended. Images are representative of, and data are shown as mean ± s.d. from, three independent experiments. Source data are provided as a Source Data file.\n(§1) An equal volume of loading buffer (94% formamide, 0.1× TBE, 0.1% bromophenol blue, 0.1% xylene cyanol) was added to the reaction eluent. The samples were heat denatured for 10 min at 100 °C and loaded onto a 14% denaturing acrylamide gel (7 M urea, 1× TBE) and electrophoresed for 90 min at constant 38 W. Samples were imaged using a Typhoon phosphorimager (GE Healthcare). Percent primer extension was calculated with ImageQuant TL 8.2 by measuring the intensity of each product band and dividing by the total radioactivity in the lane or total products, as indicated in the figure legends.\nTelomerase reactions were conducted with 5 nM 32P-end labeled primer (a) Primer 1 (TTAGGG)3, (b) Primer 2 (GGTTAG)3, or (c and d) Primer 3 […]\n(d) reactions contained 3 µg/µl RNase A. Products were separated on denaturing gels. Letters on the right indicate the template base; P indicates unextended 18-mer primer. Graphs represent the percent of total primers extended for the reactions in panels a – c from one experiment. Panel d is a representative image from three independent experiments. Source data are provided as a Source Data file. […]\nSupplementary Fig 4. Time course reactions with telomerase or pol β. (a, b) Telomerase reactions were conducted with 5 nM 32P-end labeled primer (a) Primer 4 (GTTAGG)3 or (b) Primer 2 (GGTTAG)3.\nProducts were separated on denaturing gels. Letters on the right indicate the template base; P indicates […]\nunextended 18-mer primer. […]"}, "telomerase [2]": {"target": "T1, telomerase", "test": "Telomerase extension after insertion of modified dNTP (percent of product terminated at each template position)", "assay_type": "biochemical", "parameters": "made in house; anti-FLAG immunopurification, eluted with 3xFLAG peptide", "details": "for Percent of Total Product: Mean", "protocol": "Direct telomerase assays were conducted with 5 nM ^32P-end labeled primer a and d Primer 3 (AGGGTT)3, b Primer 1 (TTAGGG)3, or c Primer 2 […]. […] Products were separated on denaturing gels. Letters on the y-axis of the graph indicate the template base; P indicates unextended 18-mer primer. Graphs represent percent of product terminated at each template position as a function of total products. Images are representative of, and data are the mean ± s.d. from, three independent experiments. Source data are provided as a Source Date file.\nas §1, with “The reactions were started by the addition of 3 μl of immunopurified telomerase eluent, incubated at 37 °C for 1 h, then terminated with 2 μl of […] and heat inactivated at 65 °C for 20 min. An” for “An”"}}, "data": [{"smiles": "Nc1nc2c(ncn2C2CC(O)C(COP(=O)(O)OP(=O)(O)OP(=O)(O)O)O2)c(=S)[nH]1", "note": "(centres unmarked) [6-thio-dGTP]", "values": [{"measurement": "% Primer Extension", "setting": "telomerase [1]; Primer 1, 5µM dNTP", "value": 0, "unit": "%"}, {"measurement": "% Primer Extension", "setting": "telomerase [1]; Primer 1, 50µM dNTP", "value": 3.68, "unit": "%"}, {"measurement": "% Primer Extension", "setting": "telomerase [1]; Primer 1, 500µM dNTP", "value": 4.47, "unit": "%"}, {"measurement": "% Primer Extension", "setting": "telomerase [1]; Primer 2, 5µM dNTP", "value": 6.19, "unit": "%"}, {"measurement": "% Primer Extension", "setting": "telomerase [1]; Primer 2, 50µM dNTP", "value": 6.25, "unit": "%"}, {"measurement": "% Primer Extension", "setting": "telomerase [1]; Primer 2, 500µM dNTP", "value": 8.35, "unit": "%"}, {"measurement": "% Primer Extension", "setting": "telomerase [1]; Primer 3, 5µM dNTP", "value": 6.75, "unit": "%"}, {"measurement": "% Primer Extension", "setting": "telomerase [1]; Primer 3, 50µM dNTP", "value": 6.04, "unit": "%"}, {"measurement": "% Primer Extension", "setting": "telomerase [1]; Primer 3, 500µM dNTP", "value": 7.79, "unit": "%"}, {"measurement": "Chain termination after telomerase insertion (in words)", "setting": "telomerase [1]; end-labeled primers, single dNTP", "value": "not a telomerase chain terminator"}, {"measurement": "Extension after insertion of the modified dNTP (in words)", "setting": "telomerase [2]; 50 μM each dNTP, analog substituted for natural dNTP", "value": "not a chain terminator"}, {"measurement": "Percent of Total Product", "setting": "telomerase [2]; Fig 4b, Primer 1 (TTAGGG)3, 50 μM each dATP, dTTP and dGTP or 6-thio-dGTP, terminated at rA3", "value": 11.46, "unit": "%"}, {"measurement": "Percent of Total Product", "setting": "telomerase [2]; Fig 4b, Primer 1, 50 μM each dATP, dTTP and dGTP or 6-thio-dGTP, terminated at rA4", "value": 5.50, "unit": "%"}, {"measurement": "Percent of Total Product", "setting": "telomerase [2]; Fig 4b, Primer 1, 50 μM each dATP, dTTP and dGTP or 6-thio-dGTP, terminated at rC1", "value": 37.27, "unit": "%"}, {"measurement": "Percent of Total Product", "setting": "telomerase [2]; Fig 4b, Primer 1, 50 μM each dATP, dTTP and dGTP or 6-thio-dGTP, terminated at rC2", "value": 6.46, "unit": "%"}, {"measurement": "Percent of Total Product", "setting": "telomerase [2]; Fig 4b, Primer 1, 50 μM each dATP, dTTP and dGTP or 6-thio-dGTP, terminated at rC6", "value": 34.87, "unit": "%"}, {"measurement": "Percent of Total Product", "setting": "telomerase [2]; Fig 4b, Primer 1, 50 μM each dATP, dTTP and dGTP or 6-thio-dGTP, terminated at rU5", "value": 3.92, "unit": "%"}, {"measurement": "Percent of Total Product", "setting": "telomerase [2]; Fig 4c, Primer 2, 50 μM each dATP, dTTP and dGTP or 6-thio-dGTP, terminated at rA3", "value": 49.91, "unit": "%"}, {"measurement": "Percent of Total Product", "setting": "telomerase [2]; Fig 4c, Primer 2, 50 μM each dATP, dTTP and dGTP or 6-thio-dGTP, terminated at rA4", "value": 4.12, "unit": "%"}, {"measurement": "Percent of Total Product", "setting": "telomerase [2]; Fig 4c, Primer 2, 50 μM each dATP, dTTP and dGTP or 6-thio-dGTP, terminated at rC1", "value": 23.36, "unit": "%"}, {"measurement": "Percent of Total Product", "setting": "telomerase [2]; Fig 4c, Primer 2, 50 μM each dATP, dTTP and dGTP or 6-thio-dGTP, terminated at rC2", "value": 22.82, "unit": "%"}, {"measurement": "Percent of Total Product", "setting": "telomerase [2]; Fig 4c, Primer 2, 50 μM each dATP, dTTP and dGTP or 6-thio-dGTP, terminated at rC6", "value": 8.70, "unit": "%"}, {"measurement": "Percent of Total Product", "setting": "telomerase [2]; Fig 4c, Primer 2, 50 μM each dATP, dTTP and dGTP or 6-thio-dGTP, terminated at rU5", "value": 0.81, "unit": "%"}, {"measurement": "Percent of Total Product", "setting": "telomerase [2]; Fig 4d, Primer 3 (AGGGTT)3, 50 μM each dATP, dTTP and dGTP or 6-thio-dGTP, terminated at rU5", "value": 4.61, "unit": "%"}, {"measurement": "Percent of Total Product", "setting": "telomerase [2]; Fig 4d, Primer 3, 50 μM each dATP, dTTP and dGTP or 6-thio-dGTP, terminated at rA3", "value": 1.16, "unit": "%"}, {"measurement": "Percent of Total Product", "setting": "telomerase [2]; Fig 4d, Primer 3, 50 μM each dATP, dTTP and dGTP or 6-thio-dGTP, terminated at rC1", "value": 49.66, "unit": "%"}, {"measurement": "Percent of Total Product", "setting": "telomerase [2]; Fig 4d, Primer 3, 50 μM each dATP, dTTP and dGTP or 6-thio-dGTP, terminated at rC2", "value": 7.38, "unit": "%"}, {"measurement": "Percent of Total Product", "setting": "telomerase [2]; Fig 4d, Primer 3, 50 μM each dATP, dTTP and dGTP or 6-thio-dGTP, terminated at rC6", "value": 37.00, "unit": "%"}]}, {"smiles": "Nc1ncnc2c1ncn2C1CC(O)C(COP(=O)(O)OP(=O)(O)OP(=O)(O)O)O1", "note": "(centres unmarked) [dATP]", "values": [{"measurement": "Percent Primer Extension", "setting": "telomerase [1]; Primer 1 (TTAGGG)3, first template base rA3, Mean of three experiments", "value": 3.48, "unit": "%"}, {"measurement": "% Primer Extension", "setting": "telomerase [1]; Primer 1, 5µM dNTP", "value": 0.00, "unit": "%"}, {"measurement": "% Primer Extension", "setting": "telomerase [1]; Primer 1, 50µM dNTP", "value": 1.84, "unit": "%"}, {"measurement": "% Primer Extension", "setting": "telomerase [1]; Primer 1, 500µM dNTP", "value": 3.63, "unit": "%"}, {"measurement": "Percent Primer Extension", "setting": "telomerase [1]; Primer 2 (GGTTAG)3, first template base rC1, Mean of three experiments", "value": 0.00, "unit": "%"}, {"measurement": "Percent Primer Extension", "setting": "telomerase [1]; Primer 2 (GGTTAG)3, first template base rC1, single experiments n1-n3", "value": 0.00, "unit": "%"}, {"measurement": "% Primer Extension", "setting": "telomerase [1]; Primer 2, 5µM dNTP", "value": 0.00, "unit": "%"}, {"measurement": "% Primer Extension", "setting": "telomerase [1]; Primer 2, 50µM dNTP", "value": 0.00, "unit": "%"}, {"measurement": "% Primer Extension", "setting": "telomerase [1]; Primer 2, 500µM dNTP", "value": 2.50, "unit": "%"}, {"measurement": "% Primer Extension", "setting": "telomerase [1]; Primer 3, 5µM dNTP", "value": 11.52, "unit": "%"}, {"measurement": "% Primer Extension", "setting": "telomerase [1]; Primer 3, 50µM dNTP", "value": 14.88, "unit": "%"}, {"measurement": "% Primer Extension", "setting": "telomerase [1]; Primer 3, 500µM dNTP", "value": 23.85, "unit": "%"}, {"measurement": "Percent of Total Product", "setting": "telomerase [2]; Fig 4a, Primer 3, 50 μM each dTTP, dGTP and dATP or 2-OH-dATP, terminated at rA3", "value": 2.35, "unit": "%"}, {"measurement": "Percent of Total Product", "setting": "telomerase [2]; Fig 4a, Primer 3, 50 μM each dTTP, dGTP and dATP or 2-OH-dATP, terminated at rA4", "value": 1.56, "unit": "%"}, {"measurement": "Percent of Total Product", "setting": "telomerase [2]; Fig 4a, Primer 3, 50 μM each dTTP, dGTP and dATP or 2-OH-dATP, terminated at rC1", "value": 1.47, "unit": "%"}, {"measurement": "Percent of Total Product", "setting": "telomerase [2]; Fig 4a, Primer 3, 50 μM each dTTP, dGTP and dATP or 2-OH-dATP, terminated at rC2", "value": 0.77, "unit": "%"}, {"measurement": "Percent of Total Product", "setting": "telomerase [2]; Fig 4a, Primer 3, 50 μM each dTTP, dGTP and dATP or 2-OH-dATP, terminated at rC6", "value": 8.96, "unit": "%"}, {"measurement": "Percent of Total Product", "setting": "telomerase [2]; Fig 4a, Primer 3, 50 μM each dTTP, dGTP and dATP or 2-OH-dATP, terminated at rU5 (first)", "value": 4.92, "unit": "%"}, {"measurement": "Percent of Total Product", "setting": "telomerase [2]; Fig 4a, Primer 3, 50 μM each dTTP, dGTP and dATP or 2-OH-dATP, terminated at rU5 (second, after translocation)", "value": 0.73, "unit": "%"}]}]}
